Data from the METLIN SMRT retention time set (Domingo-Almenara et al. 2019).

Experiment: gradient 5% acetonitrile 3 min, to 50% in 2 min, to 85% in 15 min, held 3 min, 100 µL/min
Conditions: column: Zorbax Extend-C18 2.1 x 50 mm; eluents: water / acetonitrile, 0.1% formic acid
In short: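 Retention times of pure standards were taken from adduct peaks that were selected by computer and manually inspected. Over 3 months, mixtures of ~100 molecules were run by HPLC–quadrupole time-of-flight mass spectrometry in positive and negative ionization mode. The Zorbax Extend-C18 column (2.1 × 50 mm, 1.8 μm) ran at 100 μL/min in water and acetonitrile, each containing 0.1% formic acid, with 40 μL dead volume and 900 μL dwell volume.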

| SMILES | RP-LC retention time [s] |
| --- | --- |
| Cc1cc(Nc2ccc(NC(=O)c3ccc4c(c3)OCO4)cc2)nc(N2CCOCC2)n1 | 656 |
| Cc1cc(OCC(=O)Nc2ccc(C)c(C)c2)nc(N2CCN(c3ccccc3)CC2)n1 | 911 |
| Cc1cc(C2CCCN2C(=O)Cc2cccc(F)c2)no1 (configuration not stated) | 790 |
| CC(Cc1ccco1)NC(=O)c1ccc2ccnc(N3CCN(c4ccccc4)CC3)c2c1 (configuration not stated) | 806 |
| O=C(Nc1ccc(Cl)cc1)c1oc2ccccc2c1NC(=O)C1CC1 | 1080 |
| CCC1Oc2ccc(S(=O)(=O)N3CCC(C(=O)NC4CCCCCC4)CC3)cc2NC1=O (configuration not stated) | 951 |
| C=Cc1ccc(Cn2c(C)c(CNCCc3ccco3)c(C(=O)O)c2C)cc1 | 755 |
| O=C(NCCc1ccncc1)C1CN(C(=O)c2cccs2)CC12CCCCC2 (configuration not stated) | 610 |
| COc1ccc(-n2c(=O)c(C(=O)NC(C)c3ccc(F)cc3)c(O)c3cccnc32)cc1 (configuration not stated) | 1220 |
| Cc1occc1C(=O)N1CCC2(CC1)CC(C)(O)CCO2 (configuration not stated) | 645 |
| CCOc1ccc(-n2nnnc2CN2CCN(C(=O)c3cccs3)CC2)cc1 | 746 |
| COCCn1c(=O)c2cc(C(=O)Nc3ccccc3)nn2c2ccccc21 | 714 |
| O=C(NCc1ccccc1)c1c(O)c2cccnc2n(Cc2ccccc2)c1=O | 1370 |
| O=C(NC1CC1)c1ccc(OCC2CCN(C(=O)Cc3ccccc3F)CC2)cc1 | 803 |
| Cc1ccc(CNC(=O)C2CCN(S(=O)(=O)c3c(C)[nH]c(C)c3C(=O)N3CCCC3)CC2)cc1 | 720 |
| CC1CC(=O)c2cnc(N3CCN(Cc4ccccc4)CC3)nc2C1 (configuration not stated) | 643 |
| CCCN1C(=O)COc2ccc(-c3csc(NC(=O)C(C)C)n3)cc21 | 918 |
| CCn1nc(C(=O)Nc2nc3c(SC)cccc3s2)cc1C | 994 |
| O=C(NCCc1csc(-c2ccccc2)n1)C1CCN(S(=O)(=O)c2ccccc2)CC1 | 881 |
| COc1ccc(-c2nnc(SCc3cc(=O)n4c(C)csc4n3)o2)cc1 | 831 |
| Cc1ccc(-c2csc(NC(=O)CCCOc3ccccc3C)n2)cc1 | 1300 |
| O=C(NCc1ccc(OC(F)(F)F)cc1)C1c2c(F)cccc2C(=O)N1CCc1ccccn1 (configuration not stated) | 787 |

| SMILES | RP-LC retention time [s] |
| --- | --- |
| Cc1cc(C)cc(NC(=O)C2CCCN(c3cc(=O)n(C)c(=O)n3C)C2)c1 (configuration not stated) | 783 |
| COc1ccc(C(=O)CC2(O)C(=O)Nc3ccc(C)cc32)c(OC)c1 (configuration not stated) | 685 |
| CCc1ccc(CNC(=O)CN2CCc3ccccc3C2C(=O)N2CCC(C)CC2)cc1 (configuration not stated) | 1050 |
| Cc1cc(C)c2c(=O)n(Cc3nc(-c4ccccc4Cl)oc3C)c(=O)n(Cc3ccco3)c2n1 | 1390 |
| Cc1nc(CC(=O)Nc2nc(-c3ccc(Br)cc3)cs2)cs1 | 996 |
| CSc1nnc(-c2nn(C)c3c2CN(C(=O)c2cccc(F)c2)CC3)n1C | 693 |
| Cc1cccc(-c2nnc(-c3ccc(Cl)c(S(=O)(=O)N4CCOCC4)c3)o2)c1 | 1020 |
| COc1ncc(C(=O)NCc2cccc(Br)c2)cn1 | 779 |
| COc1ccc(-n2c(=O)n(C)c(=O)c3cc(C(=O)NCc4ccccc4)cnc32)cc1 | 849 |
| COc1ccc2cc(C(=O)N3CCC(CC(=O)NCCc4c[nH]c5ccc(OC)cc45)CC3)[nH]c2c1 | 759 |
| Cc1ccc(NC(=O)CSc2cc(N3CCC(C)CC3)ncn2)c(C)c1 | 1100 |
| COc1ccc(C(C)NC(=O)c2cc(-c3ccccc3)cn2C)cc1OC (configuration not stated) | 963 |
| Cc1ccccc1C1CCCN1C(=O)c1nn(C)cc1Cl (configuration not stated) | 849 |
| CCN(CC)S(=O)(=O)c1ccc2c(c1)CC(C(=O)NCCN(C)C)N2C(C)=O (configuration not stated) | 645 |
| O=C(NCCCN1CCN(c2ccccc2F)CC1)c1nnc(-c2ccccc2)o1 | 664 |
| O=S(=O)(c1cccn2c(SCc3cc(F)cc(F)c3)nnc12)N1CCCC1 | 845 |
| CCCN(C)c1nccn2c(=O)n(CC(=O)Nc3ccc(F)c(Cl)c3)nc12 | 731 |
| COC(=O)c1ccc2c(=O)n(-c3cc(OC)cc(OC)c3)c(N3CCCCCC3)nc2c1 | 1220 |
| Cc1cccc(Nc2nc(CC(=O)NCc3ccccc3OC(F)(F)F)cs2)n1 | 708 |
| COc1cc(OC)c(NC(=O)c2cc3c(=O)n(CC(C)C)ccc3n2C)cc1Cl | 924 |
| Cn1c(=O)c(C(=O)N2CCN(c3ccccn3)CC2)nn(-c2ccc(F)cc2)c1=O | 622 |
| CCN1C(=O)c2cc(S(=O)(=O)Nc3cc(C)ccc3C)ccc2Oc2cccnc21 | 1100 |

| SMILES | RP-LC retention time [s] |
| --- | --- |
| CCC1Oc2ccc(S(=O)(=O)N3CCC(C(=O)N4CCc5ccccc54)CC3)cc2NC1=O (configuration not stated) | 917 |
| O=C1[C@H]2CN(Cc3cccc(OC(F)(F)F)c3)C[C@H]2C(=O)N1Cc1ccc2c(c1)OCO2 | 969 |
| CC(CCNC(=O)CN1C(=O)CCn2nc(-c3cn(C)c4ccccc34)cc21)N1CCCC1 (configuration not stated) | 616 |
| Cc1ccccc1NC(=O)N1CC(Cc2nncn2C(C)C)C1 | 616 |
| COc1cc(OC)c(NC(=O)N2CCN(c3ccc(=O)n(-c4ccc(C)cc4)n3)CC2)cc1Cl | 877 |
| O=C(Nc1cccc(F)c1)N1CCCC1c1nc(-c2ccccc2)no1 (configuration not stated) | 964 |
| CN(C)CCNc1ncnc2c1cnn2-c1cccc(Cl)c1 | 648 |
| Nc1nc(N2CCN(c3ccccn3)CC2)ncc1C(=O)NCc1ccccc1 | 592 |
| COc1ccc(Cl)cc1NC(=O)C1CCN(S(=O)(=O)c2cc(-c3noc(C)n3)cs2)CC1 | 1050 |
| Cc1cccc(-c2nc(C3CCN(S(=O)(=O)c4ccccc4F)CC3)no2)c1 | 1160 |
| Cc1ccc(-n2nc3c(=O)n(CCCC(=O)NC4CC4)nc(C)c3c2C)cc1 | 717 |
| COc1ccc(NS(=O)(=O)c2cn(CC(C)C)c3ncccc23)cc1Cl | 950 |
| CC(C)CNC(=O)C1CCN(c2cnc(N3CCCCCC3)nc2)CC1 | 716 |
| CC(C)c1ccc(NC(=O)C2CCCN(c3ncnc4c3oc3ccccc34)C2)cc1 (configuration not stated) | 976 |
| CCn1nc(C)c(CCNC(=O)c2cc3c(=O)n(Cc4cccnc4)ccc3nc2C)c1C | 563 |
| O=S(=O)(Cc1ccccc1F)N1CCCCC1c1nc(-c2ccccc2)n[nH]1 (configuration not stated) | 948 |
| COc1ccccc1N1CCN(C(=O)c2cc(NC(=O)C(C)C)cc3nc(C)ccc23)CC1 | 666 |
| O=C(c1cccnc1)N1CCCCC1c1nncn1-c1ccccc1 (configuration not stated) | 596 |
| CCOC(=O)Cn1c(C2CC(=O)N(c3cccc(SC)c3)C2)nc2ccccc21 (configuration not stated) | 852 |
| COc1cccc(N2CC(C(=O)Nc3nnc(-c4csc(C)n4)o3)CC2=O)c1 (configuration not stated) | 817 |
| Cc1cc(C)n2c(Nc3ccccc3)c(-c3cccc(Cl)c3)nc2n1 | 1130 |
| O=C(Cc1ccc(NC(=O)c2cc(=O)c3ccccc3o2)cc1)NCc1cccs1 | 739 |

| SMILES | RP-LC retention time [s] |
| --- | --- |
| Cc1cc(=O)oc2c3c(cc(OCC(=O)N[C@H](CC(C)C)C(=O)O)c12)OC(C)(C)CC3 | 892 |
| O=C(NCCc1ccccc1)c1nnc(-c2ccc(S(=O)(=O)N3CCCC3)cc2)o1 | 916 |
| COCCOC(=O)c1c(C)oc2ccc(OC(=O)N(C)C)cc12 | 830 |
| CCS(=O)(=O)N1CCCC(n2c(C)cnc2-c2ccncc2)C1 (configuration not stated) | 565 |
| Cn1nc(N2CCCC(NC(=O)c3cccs3)C2)ccc1=O (configuration not stated) | 627 |
| CCCNC(=O)C1CCN(c2nc3ccsc3c(=O)n2Cc2ccc(F)cc2)CC1 | 807 |
| CN1C(=O)c2cc(C(=O)NCCc3ccccc3)nn2CC1(C)C(=O)NCc1ccc(F)cc1 (configuration not stated) | 768 |
| CCn1cc(C)c(C(=O)O)c1CC(=O)N(C)c1cccc(Cl)c1 | 792 |
| COc1ccc2[nH]c3c(c2c1)CCNC31CCN(Cc2ccc(F)c(F)c2)CC1 | 587 |
| O=C(CCSc1ccccc1)N1CCCC(c2nnc(-c3cccs3)o2)C1 (configuration not stated) | 837 |
| CCc1nc2cc(N3CCCC(C(=O)NC4CCCC4)C3)cnc2nc1CC (configuration not stated) | 785 |
| O=C(Nc1ccccc1)c1cccn1Cc1noc(-c2ccccc2)n1 | 1020 |
| O=C(CCc1nnn2c1CN(C(=O)Nc1cccc(F)c1)CC2)NC1CC1 | 664 |
| CCN(CC)S(=O)(=O)c1ccc(-n2cnc(C(=O)Nc3cc(C(C)(C)C)ccc3O)c2)cc1 | 1060 |
| CNCC[C@H](Oc1ccc(C(F)(F)F)cc1)c1ccccc1 | 818 |
| N#Cc1cccc(N2C=C(C(=O)N3CCCCC3)S(=O)(=O)c3ccc(F)cc32)c1 | 827 |
| Cc1[nH]c(C(=O)N2CCC(CC(=O)N(C)Cc3ccco3)CC2)c(C)c1C(=O)OC(C)C | 798 |
| Cc1ccn2cc(-c3ccc(NC(=O)Nc4cccc(Cl)c4)cc3)nc2n1 | 692 |
| Cc1ccc(C)c(NC(=O)N2CCCC(C)(C(=O)NCc3ccccc3)C2)c1 (configuration not stated) | 967 |
| CCCC(NC(=O)Cc1ccccc1F)C(=O)Nc1nc2ccccc2[nH]1 (configuration not stated) | 694 |
| CCc1ccccc1NC(=O)N1CCCC1c1nc(-c2cccc(OC)c2)no1 (configuration not stated) | 957 |
